Test results taken from patent publication US7829595B2, “Rapid dissolution formulation of a calcium receptor-active compound” (Amgen Inc., priority 2003, dated 2010).
Converted amounts (≈) assume the structure as drawn. Like-named read-outs stand apart in the source and are kept apart here.

Test: Solubility of cinacalcet in water as a function of pH
Type: physicochemical
Method: Calcium receptor-active compounds are known in the art. One example of a calcium receptor-active compound is cinacalcet HCl, which is described, for example, in U.S. Pat. No. 6,001,884. Such calcium receptor-active compounds may be insoluble or sparingly soluble in water, particularly in their non-ionized state. […] However, when the pH is about 1, the solubility decreases to about 0.1 mg/mL. Such limited solubility can reduce the number of formulation and delivery options available for these calcium receptor-active compounds. Limited water solubility can also result in low bioavailability of the compounds.

Work on `C[C@@H](NCCCc1cccc(C(F)(F)F)c1)c1cccc2ccccc12` [cinacalcet, N-(1-(R)-(1-naphthyl)ethyl]-3-[3-(trifluoromethyl)phenyl]-1-aminopropane] yielded a solubility (aqueous buffer, pH ranges from about 3 to about 5, read-out: solubility) of about 1600 µg/mL (≈ 4480 µM), a solubility (pH 1, simulated gastric fluid, pH about 1, read-out: solubility) of about 100 µg/mL (≈ 280 µM) and a solubility (pH 7, water, neutral pH, read-out: solubility in water) of under 1 µg/mL.
